Earlier results, collected in patent EP0225409A1, “Organic amine phosphonic acid complexes for the treatment of calcific tumors” (THE DOW CHEMICAL COMPANY, priority 1985, dated 1987).

Conditions: 24 hours after injection

NC(c1ccc(O)c([131I])c1)(P(=O)(O)O)P(=O)(O)O [α-amino-(3-iodo-4-hydroxybenzylidene)diphosphonate]
injected dose present in the thyroid: 0.1%
